Data set [1] in a line: Human liver microsomes (HLMs) intrinsic clearance assay. Particulars: human, microsomes, pH 7.4, HLM CLint. The class given is in vitro ADME.
For a further data set, the system named is HEL cells. Briefly: Proliferation assay, HEL control cell line (CellTiter-Glo, 7 days). Format: cell-based, human. Conditions: Homo sapiens, HEL, 168 h. The essentials:
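Cells seeded at 125 (MOLM-13), 300 (MV4;11), 75 (OCI-AML3) or 200 (HEL) per well were exposed to 3.16-fold compound dilutions (0.1% DMSO) for 7 days at 37° C. Viability by CellTiter-Glo luminescence, normalized to DMSO (100%) and day-0 plate (0%); IC50 from one-site dose-response fit.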
A general note: ATP-based viability assays read luminescence as a measure of living cells.

Another data set has as its target hERG (Homo sapiens (Human), UniProt Q12809). Briefly: hERG assay 1 (standard), SyncroPatch 384PE. The class given is cell-based. Particulars: CHO cells, room temperature, up to 40 uM. The method in brief:
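Automated patch clamp on hERG-expressing CHO-K1 cells at room temperature, +60/−40 mV protocol every 15 s. Six-point cumulative concentrations 139 nM to 40 uM (0.33% DMSO final); IC50 from one-site fit of % inhibition. Wells required ≥30 MegaOhm seal, current >0.2 nA, Z prime >0.4.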
A general note: The hERG channel carries a current that helps repolarise heart muscle cells.

hERG, sequence (Q12809 whole entry): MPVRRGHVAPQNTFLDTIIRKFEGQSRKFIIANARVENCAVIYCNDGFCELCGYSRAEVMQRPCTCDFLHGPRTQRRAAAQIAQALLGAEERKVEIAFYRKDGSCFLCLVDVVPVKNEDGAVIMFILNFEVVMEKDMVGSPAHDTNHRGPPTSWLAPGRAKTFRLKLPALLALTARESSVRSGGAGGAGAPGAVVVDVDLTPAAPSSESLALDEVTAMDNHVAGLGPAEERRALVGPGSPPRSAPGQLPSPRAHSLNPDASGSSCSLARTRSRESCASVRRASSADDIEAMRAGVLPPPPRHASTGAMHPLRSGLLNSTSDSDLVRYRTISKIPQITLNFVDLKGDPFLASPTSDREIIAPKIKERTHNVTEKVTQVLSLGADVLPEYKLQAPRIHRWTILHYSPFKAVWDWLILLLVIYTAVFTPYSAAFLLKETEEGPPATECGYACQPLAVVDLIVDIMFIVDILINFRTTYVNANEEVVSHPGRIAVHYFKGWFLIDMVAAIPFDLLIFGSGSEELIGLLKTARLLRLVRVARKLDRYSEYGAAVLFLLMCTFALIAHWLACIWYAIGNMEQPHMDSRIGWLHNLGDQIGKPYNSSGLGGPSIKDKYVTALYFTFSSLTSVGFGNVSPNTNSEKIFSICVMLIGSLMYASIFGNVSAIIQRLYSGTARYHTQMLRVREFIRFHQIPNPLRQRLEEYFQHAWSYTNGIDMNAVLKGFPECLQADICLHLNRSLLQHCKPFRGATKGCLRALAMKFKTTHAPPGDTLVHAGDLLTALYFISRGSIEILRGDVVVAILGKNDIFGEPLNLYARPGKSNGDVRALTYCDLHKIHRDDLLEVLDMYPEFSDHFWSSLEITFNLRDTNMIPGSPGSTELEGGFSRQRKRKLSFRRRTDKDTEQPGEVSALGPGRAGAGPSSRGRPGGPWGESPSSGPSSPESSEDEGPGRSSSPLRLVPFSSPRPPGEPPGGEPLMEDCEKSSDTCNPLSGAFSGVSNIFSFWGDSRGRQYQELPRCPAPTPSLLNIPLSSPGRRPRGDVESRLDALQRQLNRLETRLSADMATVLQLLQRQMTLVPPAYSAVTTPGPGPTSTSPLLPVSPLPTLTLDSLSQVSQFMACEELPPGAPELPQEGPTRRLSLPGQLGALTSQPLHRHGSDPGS

Regarding `CCN(C(=O)c1cc(F)ccc1-n1c(C)c(C(=O)C2CCN(C(=O)[C@H]3NC[C@@H]4C[C@@H]43)CC2)c2ccncc21)C(C)C` [Example 47, 2-(3-(1-((1S,2S,5R)-3-Azabicyclo[3.1.0]hexane-2-carbonyl)piperidine-4-carbonyl)-2-methyl-1H-pyrrolo[2,3-c]pyridin-1-yl)-N-ethyl-5-fluoro-N-isopropylbenzamide], the microsomal CLint at 1 µM in data set [1] was determined as 54 µL/min/mg. Also, the results for the IC50 with HEL cells and at hERG were more than 10 µM and more than 40 µM, respectively.

Consider `Cc1c(C(=O)C2CCN(C(=O)[C@H]3NC[C@@H]4C[C@@H]43)CC2)c2ccncc2n1-c1ccc(F)cc1-c1cnccc1C(C)C` [Example 54, (1-((1S,2S,5R)-3-Azabicyclo[3.1.0]hexane-2-carbonyl)piperidin-4-yl)(1-(4-fluoro-2-(4-isopropylpyridin-3-yl)phenyl)-2-methyl-1H-pyrrolo[2,3-c]pyridin-3-yl)methanone], for which the microsomal CLint at 1 µM in data set [1] was 73 µL/min/mg. Moreover, the 50% inhibitory concentration (IC50) in the data set with HEL cells was more than 10 µM; on hERG, 13.1 µM.

The microsomal CLint is a measure of how fast metabolising enzymes remove a compound, apart from limits set by blood flow. Read a high microsomal CLint as rapid turnover. Usually IC50 stands for the concentration that gives 50% inhibition. A low value points to greater potency.

(Values after patent US20240335431A1, “1-H-PYRROLO[2,3-c]PYRIDINE COMPOUNDS” (Acerta Pharma B.V., priority 2023, published 2024).)
